Data reported in article doi:10.1101/2023.10.20.563248v1 (biorxiv, 2023).

Columns and labels:
Details in all cases: 1 µM; inhibitor
AurB = AurB (Homo sapiens, UniProt Q96GD4)
BUB1B = BUB1B (Homo sapiens, UniProt O60566)
CAMK2A = CAMK2A (Homo sapiens, UniProt Q9UQM7)
CAMK2D = CAMK2D (Homo sapiens, UniProt Q13557)
CK1g2 = CK1g2 (Homo sapiens, UniProt P78368)
DYRK4 = DYRK4 (Homo sapiens, UniProt Q9NR20)
EPHA2 = EPHA2 (Homo sapiens, UniProt P29317)
EPHB1 = EPHB1 (Homo sapiens, UniProt P54762)
EPHB2 = EPHB2 (Homo sapiens, UniProt P29323)
FYN = FYN (Homo sapiens, UniProt P06241)
GRK3 = GRK3 (Homo sapiens, UniProt P35626)
GSK3A = GSK3A (Homo sapiens, UniProt P49840)
MAP3K1 = MAP3K1 (Homo sapiens, UniProt Q13233)
MAPKAPK5 = MAPKAPK5 (Homo sapiens, UniProt Q8IW41)
MAPKAPK5, sequence (Q8IW41 whole entry): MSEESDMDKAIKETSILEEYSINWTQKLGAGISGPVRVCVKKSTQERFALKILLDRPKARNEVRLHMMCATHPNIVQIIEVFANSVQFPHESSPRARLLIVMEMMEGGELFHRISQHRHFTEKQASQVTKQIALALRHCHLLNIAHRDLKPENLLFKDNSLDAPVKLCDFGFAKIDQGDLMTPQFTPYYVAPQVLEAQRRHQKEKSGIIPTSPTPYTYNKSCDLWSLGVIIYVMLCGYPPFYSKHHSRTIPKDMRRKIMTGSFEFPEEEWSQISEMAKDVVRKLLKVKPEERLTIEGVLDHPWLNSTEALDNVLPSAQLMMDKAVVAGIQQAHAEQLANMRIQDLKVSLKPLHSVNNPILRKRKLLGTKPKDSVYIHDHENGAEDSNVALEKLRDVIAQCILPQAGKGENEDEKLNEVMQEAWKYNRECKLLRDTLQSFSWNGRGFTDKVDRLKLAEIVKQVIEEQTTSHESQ

NEK1 = NEK1 (Homo sapiens, UniProt Q96PY6)
NEK1, sequence (Q96PY6 whole entry): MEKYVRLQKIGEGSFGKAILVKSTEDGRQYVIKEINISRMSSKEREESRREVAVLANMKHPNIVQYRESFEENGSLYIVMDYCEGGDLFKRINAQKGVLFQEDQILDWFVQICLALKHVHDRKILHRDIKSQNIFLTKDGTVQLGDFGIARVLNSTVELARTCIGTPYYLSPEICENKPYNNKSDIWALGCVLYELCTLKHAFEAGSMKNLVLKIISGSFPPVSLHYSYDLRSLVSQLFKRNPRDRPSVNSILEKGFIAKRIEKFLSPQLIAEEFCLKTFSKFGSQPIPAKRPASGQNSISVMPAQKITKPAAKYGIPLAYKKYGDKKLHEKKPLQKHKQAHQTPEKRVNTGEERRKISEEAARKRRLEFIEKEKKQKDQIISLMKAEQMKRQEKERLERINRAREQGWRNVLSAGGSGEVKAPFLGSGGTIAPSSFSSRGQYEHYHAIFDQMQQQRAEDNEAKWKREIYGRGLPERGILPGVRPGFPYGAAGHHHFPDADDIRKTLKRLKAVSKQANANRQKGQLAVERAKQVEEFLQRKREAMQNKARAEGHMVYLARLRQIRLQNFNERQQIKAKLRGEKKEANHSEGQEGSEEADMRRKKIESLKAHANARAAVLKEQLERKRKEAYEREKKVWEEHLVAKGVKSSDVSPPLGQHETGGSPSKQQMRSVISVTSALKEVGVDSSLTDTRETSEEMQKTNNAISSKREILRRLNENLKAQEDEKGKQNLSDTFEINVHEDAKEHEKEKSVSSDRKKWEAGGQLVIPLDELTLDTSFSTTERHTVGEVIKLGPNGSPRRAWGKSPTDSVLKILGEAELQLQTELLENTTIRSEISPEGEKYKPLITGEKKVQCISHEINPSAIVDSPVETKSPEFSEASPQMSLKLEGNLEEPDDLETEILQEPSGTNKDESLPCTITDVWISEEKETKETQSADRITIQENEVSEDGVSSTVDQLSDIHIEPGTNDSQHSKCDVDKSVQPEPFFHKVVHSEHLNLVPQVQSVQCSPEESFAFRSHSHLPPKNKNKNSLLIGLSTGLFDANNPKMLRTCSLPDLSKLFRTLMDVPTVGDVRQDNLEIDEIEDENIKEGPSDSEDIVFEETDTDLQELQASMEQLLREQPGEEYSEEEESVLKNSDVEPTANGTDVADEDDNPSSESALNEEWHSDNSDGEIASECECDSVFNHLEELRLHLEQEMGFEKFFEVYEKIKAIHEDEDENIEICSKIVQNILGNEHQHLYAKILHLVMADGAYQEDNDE

PDGFRb = PDGFRb (Homo sapiens, UniProt P09619)
PKCa = PKCa (Homo sapiens, UniProt P17252)
PKCbeta2 = PKCbeta2 (Homo sapiens, UniProt P05771)
PKCbeta2, sequence (P05771 whole entry): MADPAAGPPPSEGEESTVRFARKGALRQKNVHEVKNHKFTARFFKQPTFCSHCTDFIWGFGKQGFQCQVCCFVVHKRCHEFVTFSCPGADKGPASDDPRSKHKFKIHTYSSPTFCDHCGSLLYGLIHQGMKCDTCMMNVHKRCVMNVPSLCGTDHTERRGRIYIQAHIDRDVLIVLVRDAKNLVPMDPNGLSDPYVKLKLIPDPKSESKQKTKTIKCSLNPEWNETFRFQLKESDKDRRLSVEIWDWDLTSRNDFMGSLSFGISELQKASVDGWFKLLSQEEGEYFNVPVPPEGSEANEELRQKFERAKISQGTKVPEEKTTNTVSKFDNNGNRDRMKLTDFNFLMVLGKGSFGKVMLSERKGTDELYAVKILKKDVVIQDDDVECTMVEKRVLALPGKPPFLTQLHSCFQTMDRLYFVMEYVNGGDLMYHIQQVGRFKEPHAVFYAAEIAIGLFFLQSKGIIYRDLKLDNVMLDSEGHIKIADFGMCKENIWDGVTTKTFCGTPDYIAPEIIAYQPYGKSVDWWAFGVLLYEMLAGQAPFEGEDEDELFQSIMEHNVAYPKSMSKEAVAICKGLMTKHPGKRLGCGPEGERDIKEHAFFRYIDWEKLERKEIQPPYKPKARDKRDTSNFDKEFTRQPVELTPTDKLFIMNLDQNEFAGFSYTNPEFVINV

ROCK1 = ROCK1 (Homo sapiens, UniProt Q13464)
ROCK1, sequence (Q13464 whole entry): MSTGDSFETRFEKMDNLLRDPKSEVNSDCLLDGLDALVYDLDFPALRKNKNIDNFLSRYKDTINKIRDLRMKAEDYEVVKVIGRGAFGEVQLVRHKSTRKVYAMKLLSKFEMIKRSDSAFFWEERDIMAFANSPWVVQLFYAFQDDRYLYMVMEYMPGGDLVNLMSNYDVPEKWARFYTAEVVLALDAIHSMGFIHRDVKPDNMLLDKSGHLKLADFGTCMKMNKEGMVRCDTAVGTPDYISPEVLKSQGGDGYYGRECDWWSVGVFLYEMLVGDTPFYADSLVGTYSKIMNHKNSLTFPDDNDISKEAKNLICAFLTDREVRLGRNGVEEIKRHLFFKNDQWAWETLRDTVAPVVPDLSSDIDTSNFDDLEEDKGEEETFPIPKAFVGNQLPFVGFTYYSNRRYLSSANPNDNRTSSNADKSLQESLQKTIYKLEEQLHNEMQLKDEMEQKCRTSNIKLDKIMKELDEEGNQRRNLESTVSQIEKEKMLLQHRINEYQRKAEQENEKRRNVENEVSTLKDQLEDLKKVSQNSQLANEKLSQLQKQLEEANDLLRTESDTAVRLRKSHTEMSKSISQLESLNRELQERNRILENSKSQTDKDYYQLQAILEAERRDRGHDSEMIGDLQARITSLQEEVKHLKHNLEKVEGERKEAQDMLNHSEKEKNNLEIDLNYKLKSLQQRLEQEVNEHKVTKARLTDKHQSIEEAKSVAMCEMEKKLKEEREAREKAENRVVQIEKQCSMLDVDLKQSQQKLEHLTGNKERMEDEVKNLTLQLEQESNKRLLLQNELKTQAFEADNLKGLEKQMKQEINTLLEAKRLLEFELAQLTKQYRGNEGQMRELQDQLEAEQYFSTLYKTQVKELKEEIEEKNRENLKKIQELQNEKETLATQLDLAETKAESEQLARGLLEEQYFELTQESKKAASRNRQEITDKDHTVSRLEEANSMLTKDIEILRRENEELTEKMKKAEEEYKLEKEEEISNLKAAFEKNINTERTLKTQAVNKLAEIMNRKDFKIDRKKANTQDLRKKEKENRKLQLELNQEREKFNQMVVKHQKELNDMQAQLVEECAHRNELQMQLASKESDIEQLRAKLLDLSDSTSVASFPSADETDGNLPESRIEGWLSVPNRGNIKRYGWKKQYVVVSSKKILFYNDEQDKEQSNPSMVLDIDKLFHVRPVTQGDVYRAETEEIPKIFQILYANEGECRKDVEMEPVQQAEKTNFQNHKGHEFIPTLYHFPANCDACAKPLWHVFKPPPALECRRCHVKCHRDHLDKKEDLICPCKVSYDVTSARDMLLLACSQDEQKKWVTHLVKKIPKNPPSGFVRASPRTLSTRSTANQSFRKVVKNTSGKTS

SGK3 = SGK3 (Homo sapiens, UniProt Q96BR1)
SNARK = SNARK (Homo sapiens, UniProt Q9H093)
SRC = SRC (Homo sapiens, UniProt P12931)
TAOK3 = TAOK3 (Homo sapiens, UniProt Q9H2K8)
TLK2 = TLK2 (Homo sapiens, UniProt Q86UE8)
TNK1 = TNK1 (Homo sapiens, UniProt Q13470)
TRKB = TRKB (Homo sapiens, UniProt Q16620)
TXK = TXK (Homo sapiens, UniProt P42681)
TYRO3 = TYRO3 (Homo sapiens, UniProt Q06418)
VEGFR2 = VEGFR2 (Homo sapiens, UniProt P35968)
VEGFR2, sequence (P35968 whole entry): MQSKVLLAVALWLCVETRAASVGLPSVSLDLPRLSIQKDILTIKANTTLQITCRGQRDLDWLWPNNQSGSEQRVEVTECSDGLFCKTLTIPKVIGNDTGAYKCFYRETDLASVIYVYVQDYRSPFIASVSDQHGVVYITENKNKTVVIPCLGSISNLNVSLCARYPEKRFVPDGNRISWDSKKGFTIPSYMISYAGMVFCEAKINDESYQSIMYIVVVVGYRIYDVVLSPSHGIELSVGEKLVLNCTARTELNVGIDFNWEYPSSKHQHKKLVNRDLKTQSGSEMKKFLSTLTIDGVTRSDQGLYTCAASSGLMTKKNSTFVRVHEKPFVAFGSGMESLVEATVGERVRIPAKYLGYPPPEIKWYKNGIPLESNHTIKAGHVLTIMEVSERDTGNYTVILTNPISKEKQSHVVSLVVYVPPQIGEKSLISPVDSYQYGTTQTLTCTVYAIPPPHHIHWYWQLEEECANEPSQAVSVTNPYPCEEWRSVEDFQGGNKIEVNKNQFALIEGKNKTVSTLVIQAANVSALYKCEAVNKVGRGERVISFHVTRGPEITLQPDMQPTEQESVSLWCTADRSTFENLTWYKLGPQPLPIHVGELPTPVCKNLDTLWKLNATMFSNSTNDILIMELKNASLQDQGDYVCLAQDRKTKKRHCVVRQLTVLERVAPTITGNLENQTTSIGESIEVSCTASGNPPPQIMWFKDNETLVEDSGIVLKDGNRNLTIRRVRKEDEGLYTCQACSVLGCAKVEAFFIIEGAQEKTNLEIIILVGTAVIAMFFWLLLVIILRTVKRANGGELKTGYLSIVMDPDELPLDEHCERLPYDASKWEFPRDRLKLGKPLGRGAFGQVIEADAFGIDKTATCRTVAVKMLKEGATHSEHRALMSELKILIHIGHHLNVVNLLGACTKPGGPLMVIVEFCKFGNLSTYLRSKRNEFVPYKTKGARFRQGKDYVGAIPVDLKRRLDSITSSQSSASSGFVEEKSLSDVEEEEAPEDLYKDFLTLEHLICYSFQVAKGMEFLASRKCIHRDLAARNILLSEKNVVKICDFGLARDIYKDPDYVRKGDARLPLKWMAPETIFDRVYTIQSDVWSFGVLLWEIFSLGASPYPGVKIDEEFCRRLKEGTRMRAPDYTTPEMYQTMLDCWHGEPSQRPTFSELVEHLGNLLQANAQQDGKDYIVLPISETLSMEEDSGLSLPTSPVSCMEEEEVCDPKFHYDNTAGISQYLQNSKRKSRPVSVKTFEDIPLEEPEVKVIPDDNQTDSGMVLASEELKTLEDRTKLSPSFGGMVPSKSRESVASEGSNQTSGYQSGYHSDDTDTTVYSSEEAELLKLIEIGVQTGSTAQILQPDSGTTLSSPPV

WNK2 = WNK2 (Homo sapiens, UniProt Q9Y3S1)
ZAK = ZAK (Homo sapiens, UniProt Q9NYL2)

SMILES: O=C1NCCCCCNc2nc(c3ccccc3n2)Nc2cc1[nH]n2 [21c, (Z)-3^1H-2,5,11-triaza-1(4,2)-quinazolina-3(3,5)-pyrazolacycloundecaphan-4-one]
- 21c Remaining activity, percent of control [%] (AurB): 83.9%
- 21c Remaining activity, percent of control [%] (BUB1B): 101.6%
- 21c Remaining activity, percent of control [%] (CAMK2A): 110.6%
- 21c Remaining activity, percent of control [%] (CAMK2D): 95.0%
- 21c Remaining activity, percent of control [%] (CK1g2): 109.6%
- 21c Remaining activity, percent of control [%] (DYRK4): 95.6%
- 21c Remaining activity, percent of control [%] (EPHA2): 82.5%
- 21c Remaining activity, percent of control [%] (EPHB1): 77.1%
- 21c Remaining activity, percent of control [%] (EPHB2): 100.1%
- 21c Remaining activity, percent of control [%] (FYN): 56.6%
- 21c Remaining activity, percent of control [%] (GRK3): 97.4%
- 21c Remaining activity, percent of control [%] (GSK3A): 67.3%
- 21c Remaining activity, percent of control [%] (MAP3K1): 100.1%
- 21c Remaining activity, percent of control [%] (MAPKAPK5): 110.4%
- 21c Remaining activity, percent of control [%] (NEK1): 79.1%
- 21c Remaining activity, percent of control [%] (PDGFRb): 71.2%
- 21c Remaining activity, percent of control [%] (PKCa): 107.7%
- 21c Remaining activity, percent of control [%] (PKCbeta2): 100.8%
- 21c Remaining activity, percent of control [%] (ROCK1): 98.4%
- 21c Remaining activity, percent of control [%] (SGK3): 96.1%
- 21c Remaining activity, percent of control [%] (SNARK): 95.6%
- 21c Remaining activity, percent of control [%] (SRC): 94.8%
- 21c Remaining activity, percent of control [%] (TAOK3): 102.4%
- 21c Remaining activity, percent of control [%] (TLK2): 95.4%
- 21c Remaining activity, percent of control [%] (TNK1): 96.2%
- 21c Remaining activity, percent of control [%] (TRKB): 79.0%
- 21c Remaining activity, percent of control [%] (TXK): 98.2%
- 21c Remaining activity, percent of control [%] (TYRO3): 77.8%
- 21c Remaining activity, percent of control [%] (VEGFR2): 90.3%
- 21c Remaining activity, percent of control [%] (WNK2): 94.8%
- 21c Remaining activity, percent of control [%] (ZAK): 82.9%
